Measurements reported in paper PMC10056008 (Pharmaceuticals, 2023).

Legend:
[1] = human, in vivo; cited from earlier work
[2] = Pharmacokinetics of dabigatran etexilate, dabigatran and dabigatran acylglucuronide in plasma after 150 mg dabigatran etexilate with or without simvastatin; format: in vivo, human; details: human, in vivo, 150 mg
Protocol: An open-label, two-period, single sequence clinical study was conducted. After an overnight fast and drinking 200 mL of water one hour before drug administration, eligible subjects were administered with a capsule of dabigatran etexilate 150 mg ([…]®) on the first day of the study. Blood samples for pharmacokinetic and pharmacodynamic analyses were obtained using EDTA tubes and citrate tubes, respectively. […] Subjects remained at fasting stage until 4 h after the administration. […] To ensure compliance, subjects visited the study site for every drug administration. […] Blood samples were obtained at the same time point scheduled as the first day of the study. Adverse events were collected during the entire study period. This study was conducted in accordance with the Declaration of Helsinki, good clinical practice, and local regulation. The study was approved by the Institutional Review Board at Korea University Guro Hospital (2018GR0336, date of approval: 11 October 2018) and registered at ClinicalTrials.gov (NCT03728101). Separate plasma samples were kept frozen below -70 °C until analysis. Plasma concentrations of dabigatran etexilate, dabigatran, and dabigatran acylglucuronide were quantified using a high-performance liquid chromatography (Nanospace series SI-2, Shiseido Co., Ltd., Tokyo, Japan) coupled with tandem mass spectrometry (API4000, AB SCIEX LLC, Framingham, MA, USA) method. The method was validated in terms of selectivity, linearity, precision, accuracy, recovery, matrix effect, and stability prior to the analysis. In brief, 100 μL of plasma samples were deproteinized using 400 μL of acetonitrile and centrifuged at 13,000× g for 20 min. Dabigatran-d3 was used as an internal standard. The supernatants were evaporated and then dissolved in a 300 μL mobile phase consisting of acetonitrile and 10 mM ammonium formate (215:85, v/v). These samples were injected onto an Atlantis HILIC SilicaTM column (2.1 mm × 150 mm, 3 μm, Waters, Milford, MA, USA) at a flow rate of 0.3 mL/min. The mass spectrometer equipped with an electrospray ionization source was operated in a positive ion mode. Selected ion pairs of m/z 629.464→290.100 for dabigatran etexilate, m/z 472.300→289.100 for dabigatran, m/z 648.382→289.100 for dabigatran acylglucuronide were detected. […] Pharmacokinetic parameters of dabigatran etexilate, dabigatran, and dabigatran acylglucuronide were derived from noncompartmental analysis using Phoenix Winnonlin® version 8.3 (Certara, Princeton, NJ, USA). Observed values from individual time-concentration profiles were used for Cmax and Tmax. Area under the time-concentration curve (AUC) was calculated using linear-up log-down trapezoidal rule. The AUC from 0 h to infinity (AUCinf) was calculated as follows: AUCinf = AUC + Ct/ke, where Ct was the last plasma concentration and ke was the elimination rate constant. […] Mean residence time (MRT) was calculated as area under the moment curve from time of dosing to the last measurable concentration divided by AUClast. All statistical analyses were performed using SAS® version 9.4 (SAS Institute Inc., Cary, NC, USA). Descriptive statistics were used to summarize demographic, pharmacokinetic, and pharmacodynamic data. A linear mixed effects model was used to compare Cmax, AUClast, and AUCinf between two treatment periods.

## CCC(C)(C)C(=O)O[C@H]1C[C@@H](C)C=C2C=C[C@H](C)[C@H](CC[C@@H](O)C[C@@H](O)CC(=O)O)[C@H]21 [simvastatin acid]
[1]
  Time to reach Cmax (Tmax): ~4.2 h
  elimination half-life: ~4.4 h

## Cn1c(CNc2ccc(C(=N)N)cc2)nc2cc(C(=O)N(CCC(=O)OC3O[C@H](C(=O)O)[C@@H](O)[C@H](O)[C@H]3O)c3ccccn3)ccc21 (stereo partly drawn) [Dabigatran acylglucuronide]
[2]
  AUCinf: 1576.5 (1154.0) h∙ng/mL
  AUClast: 1480.1 (1090.5) h∙ng/mL
  CL/F: 176.8 (161.8) L/h
  Cmax: 266.8 (187.1) ng/mL
  MRT: 6.8 (0.9) h
  Tmax: 2 (1.5–4) h
  t1/2: 6.4 (1.9) h
